Reference: patent US12570643B2, “3-aryloxy-3-five-membered heteroaryl propylamine compound, and crystal form and use thereof” (Shanghai Leado Pharmatech Co. Ltd., priority 2019, dated 2026)

System: acetic acid writhing pain model in mice
Assay: Acetic acid writhing pain model in mice
Format: in vivo, ICR mice
Protocol: ICR mice, male, 22-25 g, were fasted for food 2 h before administration, but can have water. All ICR mice were weighed and randomly grouped with the number of animals>10 per group. […] The mice were administered via intragastric administration according to the weight of mice. 1.5% acetic acid solution (0.1 ml/10 g) was intraperitoneally injected at 1 hour after administration, and the number of times of visceral pain in each group within 30 minutes was observed, the mice were counted once when the abdomen was concave, the trunk and hind legs were extended and the hips were elevated, and the number of times of these phenomena occurred within 30 min was finally counted.

With CNCC[C@@H](Oc1cccc2ccoc12)c1cccs1 [Compound I-1, (R)-3-(benzofuran-7-yloxy)-N-methyl-3-(thiophen-2-yl)propan-1-amine] the “number of visceral pains lower than normal saline control group” value (5 mg/kg intragastric) was 50% and the ED50 (Mus musculus, po, intragastric, mice, read-out: half effective dose (ED50) in acetic acid writhing model) was less than 5 mg/kg.
